Here are results for 20 compounds from ChEMBL document CHEMBL3217431, “Synthesis, in silico screening and bioevaluation of dispiro-cycloalkanones as antitubercular and mycobacterial NAD+-dependent DNA ligase inhibitors” (Medchemcomm, 2011).

Each structure is given as a SMILES string. In brackets after ≈: the same amount, converted by molar mass. Activity calls are given as the source filed them. The rule behind the calls is not given here.

For assay [1], the system named is Mycobacterium tuberculosis. As to the kind of experiment: Antitubercular activity against Mycobacterium tuberculosis H37Rv assessed as growth inhibition after 30 days by agar microdilution method. Type of assay: functional.
The nature of assay [2]: Ratio of IC50 for human DNA ligase 1 to IC50 for Mycobacterium tuberculosis full length NAD+-dependent DNA ligase.
For assay [3], the system named is Escherichia coli. In words: In vivo antibacterial activity against Escherichia coli GR501 harboring temperature-sensitive lig251 mutant gene transformed with plasmid encoding T4 DNA ligase assessed as growth inhibition after 20 hrs by microdilution assay. The following applies: GR501, 20 h. In kind it is functional. In general terms: In broth dilution the organism is exposed to a series of concentrations in liquid medium.

Assay [4] relates to Escherichia coli. In words: In vivo antibacterial activity against Escherichia coli GR501 harboring lig251 temperature-sensitive mutant gene transformed with control plasmid pTrc99A assessed as growth inhibition after 20 hrs by microdilution assay. In kind it is functional. The following applies: GR501, 20 h.
Assay [5] concerns Salmonella typhimurium. In words: In vivo antibacterial activity against DNA ligase deficient Salmonella typhimurium variant TT15151 expressing […] T4 DNA ligase gene assessed as growth inhibition after 20 hrs by microdilution assay. In kind it is functional, Salmonella enterica subsp. enterica serovar Typhimurium. To be noted: Salmonella enterica, TT15151, 20 h.
A further assay relates to Calf thymus DNA. As to the kind of experiment: Binding affinity to calf thymus DNA up to 250 uM by ethidium bromide displacement assay. Type of assay: nucleic-acid assay. To be noted: Bos taurus.
The next assay addresses T1, DNA ligase (Enterobacteria phage T4, UniProt P00970).
T1 sequence (P00970 whole entry): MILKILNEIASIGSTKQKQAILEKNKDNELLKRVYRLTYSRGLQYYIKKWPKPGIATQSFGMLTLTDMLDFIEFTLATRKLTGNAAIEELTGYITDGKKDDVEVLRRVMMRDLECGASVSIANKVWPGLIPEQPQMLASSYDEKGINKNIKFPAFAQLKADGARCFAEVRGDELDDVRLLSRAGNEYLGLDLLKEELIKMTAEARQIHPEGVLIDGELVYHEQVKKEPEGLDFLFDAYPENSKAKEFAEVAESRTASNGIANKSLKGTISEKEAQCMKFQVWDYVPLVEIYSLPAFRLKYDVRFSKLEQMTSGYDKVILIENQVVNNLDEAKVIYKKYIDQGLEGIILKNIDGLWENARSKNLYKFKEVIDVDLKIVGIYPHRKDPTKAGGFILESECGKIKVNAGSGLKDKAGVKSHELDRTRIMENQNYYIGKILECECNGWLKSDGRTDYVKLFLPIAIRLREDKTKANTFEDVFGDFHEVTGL
As to the kind of experiment: Inhibition of nick joining activity of ATP-dependent bacteriophage T4 DNA ligase using [gamma32P]ATP-labeled nicked 40 bp DNA as substrate. Set-up: species or system Tequatrovirus T4.

A short description of assay [6]: Ratio of IC50 for ATP-dependent bacteriophage T4 DNA ligase to IC50 for Mycobacterium tuberculosis full length NAD+-dependent DNA ligase.
A short description of assay [7]: Binding affinity to plasmid DNA (unknown origin) by gel electrophoresis mobility shift assay.
The target of the next assay is DNA ligase 1 (Homo sapiens, UniProt P18858). In words: Inhibition of nick joining activity of human DNA ligase 1 using [gamma32P]ATP-labeled nicked 40 bp DNA as substrate.
Assay [8] is described as follows: Inhibition of nick joining activity of Mycobacterium tuberculosis full length NAD+-dependent DNA ligase using [gamma32P]ATP-labeled nicked 40 bp DNA as substrate.
In assay [9] the test system is Salmonella typhimurium. As to the kind of experiment: In vivo antibacterial activity against wild type Salmonella typhimurium LT2 assessed as growth inhibition after 20 hrs by microdilution assay. Type of assay: functional, Salmonella enterica subsp. enterica serovar Typhimurium. To be noted: Salmonella enterica, LT2, 20 h.
A short description of assay [10]: Competitive inhibition of nick joining activity of Mycobacterium tuberculosis full length NAD+-dependent DNA ligase using [gamma32P]ATP-labeled nicked 40 bp DNA as substrate by double reciprocal plot assay in presence of rising concentrations of NAD+.

DNA ligase 1, sequence (P18858 whole entry): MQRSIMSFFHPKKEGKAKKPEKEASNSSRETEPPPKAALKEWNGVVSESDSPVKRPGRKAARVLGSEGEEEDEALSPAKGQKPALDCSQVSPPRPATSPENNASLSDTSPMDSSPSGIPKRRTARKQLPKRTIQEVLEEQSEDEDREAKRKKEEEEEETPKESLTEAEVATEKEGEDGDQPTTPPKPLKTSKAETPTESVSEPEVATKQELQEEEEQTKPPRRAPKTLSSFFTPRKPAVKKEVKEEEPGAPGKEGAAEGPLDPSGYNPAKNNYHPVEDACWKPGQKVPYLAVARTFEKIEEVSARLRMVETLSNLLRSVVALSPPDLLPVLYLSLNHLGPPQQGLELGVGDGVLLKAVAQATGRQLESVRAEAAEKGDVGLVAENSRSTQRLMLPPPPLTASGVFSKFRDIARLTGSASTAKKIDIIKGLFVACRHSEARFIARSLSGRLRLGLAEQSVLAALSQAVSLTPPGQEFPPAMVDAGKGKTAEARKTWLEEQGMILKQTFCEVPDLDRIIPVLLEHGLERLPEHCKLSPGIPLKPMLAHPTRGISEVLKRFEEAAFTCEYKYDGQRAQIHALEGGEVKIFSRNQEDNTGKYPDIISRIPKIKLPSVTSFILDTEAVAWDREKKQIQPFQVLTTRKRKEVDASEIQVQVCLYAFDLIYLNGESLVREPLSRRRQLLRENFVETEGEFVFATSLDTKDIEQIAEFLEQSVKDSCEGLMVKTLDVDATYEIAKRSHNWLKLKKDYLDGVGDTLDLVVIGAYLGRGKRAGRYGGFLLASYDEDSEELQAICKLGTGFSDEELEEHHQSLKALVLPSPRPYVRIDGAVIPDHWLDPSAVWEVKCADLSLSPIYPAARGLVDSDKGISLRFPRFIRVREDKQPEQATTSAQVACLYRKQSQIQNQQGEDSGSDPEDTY

For `O=C1C2(CCC13CC3c1ccc(F)cc1)CC2c1ccc(F)cc1` (centres undefined), the MIC90 in assay [1] is above 30 µM.

`COc1ccc(C2CC23CCC2(CC2c2ccc(OC)cc2)C3=O)cc1` (centres undefined): the MIC90 in [1] was above 30 µM.

On to `O=C1C2(CCCC13CC3c1ccc(F)cc1)CC2c1ccc(F)cc1` (centres undefined), for which the Ratio IC50 was found to be 5 in [2] and 4 in assay [6]. In addition, the MIC with Escherichia coli [3] was determined as 178 µM (≈ 60.1 µg/mL); with Escherichia coli [4], 5.9 µM (≈ 2 µg/mL); in the assay on Salmonella typhimurium [5], 148 µM (≈ 50 µg/mL); in the assay on Salmonella typhimurium [9], 29.5 µM (≈ 9.98 µg/mL). Also, the MIC90 in [1] was above 30 µM. The outcome (in the assay on Calf thymus DNA; in assay [7]) was inactive. For the same compound, the results for the IC50 (against DNA ligase; at DNA ligase 1; in assay [8]) were 33.4 µM, 45.4 µM and 8.6 µM, respectively.

For the compound `O=C1C2(CCCC13CC3c1ccc(Br)cc1)CC2c1ccc(Br)cc1` (centres undefined), the Ratio IC50 in assay [2] and in [6] was 8 throughout. Further, the MIC in the assay with Escherichia coli [3] stood at 65.2 µM (≈ 30 µg/mL); with Escherichia coli [4], 8.6 µM (≈ 3.96 µg/mL); in the assay on Salmonella typhimurium [5] it was 76 µM (≈ 35 µg/mL); in the assay with Salmonella typhimurium [9], 43.4 µM (≈ 20 µg/mL). The MIC90 in [1] worked out at 13.5 µM (≈ 6.21 µg/mL). Moreover, the result (with Calf thymus DNA; in assay [7]) was inactive. Moreover, the IC50 against DNA ligase was 70.2 µM; against DNA ligase 1, 58.6 µM; in assay [8] it was 7.3 µM. Moreover, in assay [10], the inhibitory constant (Ki) came out at 5.9 µM.

For `NNC(=O)c1ccncc1` [ISONIAZID], in assay [1], the MIC90 is 4.7 µM (≈ 0.645 µg/mL).

Regarding `O=C1C2(CCC13CC3c1ccc(Br)cc1)CC2c1ccc(Br)cc1` (centres undefined), the MIC90 in assay [1] worked out at 28 µM (≈ 12.5 µg/mL).

Regarding `CC[C@@H](CO)NCCN[C@@H](CC)CO` [ETHAMBUTOL], the MIC90 in assay [1] turned out to be 15.9 µM (≈ 3.25 µg/mL).

Take `COc1cc(C2CC23CCCCC2(CC2c2cc(OC)c(OC)c(OC)c2)C3=O)cc(OC)c1OC` (centres undefined): the MIC90 in assay [1] was 25.2 µM (≈ 12.5 µg/mL).

For the compound `O=C1C2(CCC13CC3c1ccc(OCc3ccccc3)cc1)CC2c1ccc(OCc2ccccc2)cc1` (centres undefined), the MIC90 in [1] is 25 µM (≈ 12.5 µg/mL).

Regarding `COc1ccc(C2CC23CCCCC2(CC2c2ccc(OC)cc2)C3=O)cc1` (centres undefined), in [1], the MIC90 is above 30 µM.

`O=C1C2(CCCC13CC3c1ccc(Cl)cc1)CC2c1ccc(Cl)cc1` (centres undefined): the MIC90 in assay [1] came out at 16.8 µM (≈ 6.24 µg/mL). Further, the IC50 against DNA ligase amounted to 20.2 µM; on DNA ligase 1 it was 18.5 µM; in assay [8], 12 µM.

On to `O=C(C1CC1c1ccc(OCc2ccccc2)cc1)C1CC1c1ccc(OCc2ccccc2)cc1` (centres undefined), for which the MIC90 in [1] stood at 26.3 µM (≈ 12.5 µg/mL).

For the compound `O=C1C2(CCCC13CC3c1ccccc1)CC2c1ccccc1` (centres undefined), the MIC90 in assay [1] was above 30 µM. Moreover, the IC50 at DNA ligase was 210 µM; at DNA ligase 1 it was 130 µM; in assay [8], 180 µM.

`COc1cc(C2CC23CCCC2(CC2c2cc(OC)c(OC)c(OC)c2)C3=O)cc(OC)c1OC` (centres undefined): the MIC90 in assay [1] was found to be 25.9 µM (≈ 12.5 µg/mL).

For the compound `COc1ccc(C2CC23CCCC2(CC2c2ccc(OC)c(OC)c2)C3=O)cc1OC` (centres undefined), the MIC90 in assay [1] was determined as 29.6 µM (≈ 12.5 µg/mL).

Regarding `COc1ccc(C2CC23CCCCC2(CC2c2ccc(OC)c(OC)c2)C3=O)cc1OC` (centres undefined), the MIC90 in assay [1] worked out at 28.6 µM (≈ 12.5 µg/mL).

In the case of `O=C1C2(CCCC13CC3c1ccc(OCc3ccccc3)cc1)CC2c1ccc(OCc2ccccc2)cc1` (centres undefined), the MIC90 in assay [1] was determined as 24.3 µM (≈ 12.5 µg/mL).

`COc1ccc(C2CC23CCC2(CC2c2ccc(OC)c(OC)c2)C3=O)cc1OC` (centres undefined): the MIC90 in assay [1] is above 30 µM.

In the case of `COc1ccc(C2CC23CCCC2(CC2c2ccc(OC)cc2)C3=O)cc1` (centres undefined), the MIC90 in assay [1] was above 30 µM.

Consider `O=C1C2(CCCCC13CC3c1ccc(Cl)cc1)CC2c1ccc(Cl)cc1` (centres undefined), for which the MIC90 in assay [1] was above 30 µM.

Broadly, the MIC90 is an inhibitory concentration at the 90% level, which refers to growth in some studies and to a panel of isolates in others. By MIC is commonly meant the lowest concentration that inhibits growth of the organism. For orientation: IC50 means the concentration that inhibits the measured activity by half. High values mean a need for much substance, low ones inhibition by little substance. As a reminder, the Ki is a measure of affinity in units of concentration, obtained from inhibition or displacement.
